This is an account of results in ChEMBL document CHEMBL1122714, “Pyrazolo[4,3-d]pyrimidine nucleosides. Synthesis and antiviral activity of 1-beta-D-ribofuranosyl-3-methyl-6-substituted-7H-pyrazolo[4,3-d]pyr imi din-7-ones” (1984).

For the test, the system named is Human alphaherpesvirus 1. The test can be described thus: In vitro antiviral activity by means of plaque-inhibition assay with monolayers of Vero cells infected with the MP strain of herpes simplex virus-1 (HSV-1). The conditions noted are these: Human alphaherpesvirus 1, Vero; read-out: ED50 (the source's name). The test is classed as functional.
With `Cc1nn(C2O[C@H](CO)[C@@H](O)[C@H]2O)c2c(=O)n(-c3ccc(Cl)cc3)cnc12` (some centres undefined), the EC50 came to 50 µM.
On to `CCCCn1cnc2c(C)nn(C3O[C@H](CO)[C@@H](O)[C@H]3O)c2c1=O` (some centres undefined), for which the EC50 amounted to 152 µM.
The value for `Cc1nn(C2O[C@H](CO)[C@@H](O)[C@H]2O)c2c(=O)n(CCC(C)C)cnc12` (some centres undefined) was 350 µM; that for `Cc1nn(C2O[C@H](CO)[C@@H](O)[C@H]2O)c2c(=O)n(Cc3ccccc3)cnc12` (some centres undefined) was 245 µM.
Regarding `COc1ccc(Cn2cnc3c(C)nn(C4O[C@H](CO)[C@@H](O)[C@H]4O)c3c2=O)cc1` (some centres undefined), the EC50 came out at 49.5 µM.
For `Cc1ccc(-n2cnc3c(C)nn(C4O[C@H](CO)[C@@H](O)[C@H]4O)c3c2=O)cc1` (some centres undefined), the EC50 is 280 µM.
Turning to `Cc1nn(C2O[C@H](CO)[C@@H](O)[C@H]2O)c2c(=O)n(CCc3ccccc3)cnc12` (some centres undefined), the EC50 amounted to 174 µM.
Regarding `Cc1nn(C2O[C@H](CO)[C@@H](O)[C@H]2O)c2c(=O)n(Cc3ccc(Cl)cc3)cnc12` (some centres undefined), the EC50 worked out at 220 µM.
Turning to `O=c1[nH]c(=O)n([C@H]2C[C@H](O)[C@@H](CO)O2)cc1I` [IDOXURIDINE], the EC50 was 1.2 µM.
